From patent publication US12173007B2, “Imidazopyridazine IL-17 inhibitor compounds” (Janssen Pharmaceutica NV, priority 2021, dated 2024)

Key:
[1] = target: IL-17A(FLAG-Tagged): IL-17RA(His-Tagged) binding (Homo sapiens, UniProt Q16552, K93Q); test: IL-17A(FLAG-tagged):IL-17RA(His-tagged) binding disruption Eu-HTRF assay, Protocol 2; settings: FLAG-IL-17A 1 nM; average if tested more than once
From the text: IL-17A(FLAG-Tagged): IL-17RA(His-Tagged) Binding Disruption Eu-HTRF Assay
An antibody directed against the FLAG tag of IL-17A (SEQ ID NO: 1) is labeled with the HTRF donor chromophore (Europium-cryptate). IL-17A is present as a dimer that is “locked into” this quaternary structure due to the formation of loop-spanning […] disulfide bridges. The construct of IL-17RA used in the assay excludes the […] portion of the receptor and is fused to a C-terminal 10×His tag (SEQ ID NO:2). An antibody directed against the His tag of the IL-17RA chimera is labeled with the HTRF acceptor chromophore (“D2”). The fluorescence-resonance energy transfer (FRET) depends on the vicinity of the donor chromophore to the acceptor, and interruption of the binding between the IL-17A and IL-17RA causes the reduction/loss of FRET. Therefore, this assay allows to evaluate the compound effect on the binding IL-17A and IL-17RA by monitoring the fluorescence intensity of donor vs acceptor. The assay was run using either Protocol 1 or Protocol 2 as described below.
Protocol 2. 40 nl of 2-fold serial diluted compound solution for total 22 dilution points is added into each well of a 1536-well, white, low-volume, non-binding plate (Greiner #782904), then 2 μl of FLAG tagged IL-17A at 2×final concentration (1 nM) in solution of PBS+0.01% Triton-X100 is added to each well. The assay plate is briefly centrifuged then incubated for 1 h at rt. A mixed solution is prepared containing 2×5 nM 10HIS×IL-17RA, 2×2.5 nM Eu-anti-FLAG (CISBIO), 2×5 nM D2-anti-HIS (CISBIO) in PBS+0.01% Triton-X100+200 mM Potassium Fluoride (Sigma 60238) and 2 μl of mix is added to each well of the assay plate. The plate is briefly centrifuged then incubated for 2 h at rt. The HTRF intensities at the wavelength of donor (615 nm) and acceptor (665 nm) are measured using BMG Pherastar. The ratio between intensities at two wavelengths is calculated and plotted against the compound concentration and the data is fitted to a one-site competition model to yield IC50 of the compound.

[2] = tested on: IL-17A-induced G-CSF production in human normal keratinocyte (NHK); test: NHK assay: IL-17A-induced G-CSF production in normal human keratinocytes; type: cell-based; settings: Homo sapiens, Keratinocyte, 24 h, IL-17A 5 ng/mL, G-CSF by HTRF, average if tested more than once
Experimental: IL-17A acts directly on keratinocytes through binding to dimeric receptor IL-17RA/RC and drives the production of a number of inflammatory mediators known to be elevated in psoriasis lesional tissue. IL-17A small molecule inhibitors that block the IL-17A to interact with IL-17R would inhibit the IL-17A signaling in its targeted cells such as keratinocytes. The compound functional activity is evaluated for its impact on IL-17A-induced G-CSF production in human normal keratinocyte (NHK).
Adult normal human keratinocytes are cultured in keratinocyte growth medium (Lonza) in a flask till reaching ˜90% confluence, then cells are transferred to a 384-well plate at density of 3000-4000 cell/well. Recombinant human IL-17A (Gibco PHC9174) is pre-incubated with titrated compound or DMSO for 1 h at rt then added to the cell culture plate. The final concentration of IL-17A is 5 ng/mL and DMSO is 0.2%, in the culture containing 5% FBS. Cells are cultured/treated for 24 h at 37° C. Supernatants are collected and G-CSF production is measured through HTRF technology using Human G-CSF Kit (CisBio). G-CSF concentration was extrapolated from the standard curve and IC50 is determined using GraphPad Prism. Cell viability is also evaluated using CellTiter-Glo kit (Promega) and effect of compound on cell viability is compared to DMSO control.

Chain of UniProt Q16552 (Q16552 with tags, fused parts or gaps K93Q): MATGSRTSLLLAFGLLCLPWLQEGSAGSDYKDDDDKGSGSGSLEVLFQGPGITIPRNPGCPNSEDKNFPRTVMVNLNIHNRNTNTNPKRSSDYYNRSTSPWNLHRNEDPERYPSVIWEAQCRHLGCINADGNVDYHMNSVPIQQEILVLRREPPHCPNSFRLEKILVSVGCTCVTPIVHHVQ

IC50 [1] [nM] | Structure (SMILES) | IC50 [2] [nM]
< 50 | COC[C@H](c1cnn2cc([C@@H](NC(=O)c3nonc3C3CC3)[C@@H](C)OC3CC3)nc2c1)N1CC(F)(F)CNC1=O (relative stereo) [Example 54, N-((1R*,2R*)-2-Cyclopropoxy-1-(7-((S)-1-(5,5-difluoro-2-oxotetrahydropyrimidin-1(2H)-yl)-2-methoxyethyl)imidazo[1,2-b]pyridazin-2-yl)propyl)-4-cyclopropyl-1,2,5-oxadiazole-3-carboxamide] | 50 to 100
> 100 | COC[C@H](c1cnn2cc([C@@H](NC(=O)c3nonc3C3CC3)[C@H](C)OC3CC3)nc2c1)N1CC(F)(F)CNC1=O (relative stereo) [Example 55, N-((1R*,2S*)-2-cyclopropoxy-1-(7-((S)-1-(5,5-difluoro-2-oxotetrahydropyrimidin-1(2H)-yl)-2-methoxyethyl)imidazo[1,2-b]pyridazin-2-yl)propyl)-4-cyclopropyl-1,2,5-oxadiazole-3-carboxamide] | > 100
> 100 | COC[C@H](c1cnn2cc([C@@H](NC(=O)c3nonc3C)[C@H](C)OC(C)(C)C(F)(F)F)nc2c1)N1CC(F)(F)CNC1=O (relative stereo) [Example 61, N-((1R*,2S*)-1-(7-((S)-1-(5,5-Difluoro-2-oxotetrahydropyrimidin-1(2H)-yl)-2-methoxyethyl)imidazo[1,2-b]pyridazin-2-yl)-2-((1,1,1-trifluoro-2-methylpropan-2-yl)oxy)propyl)-4-methyl-1,2,5-oxadiazole-3-carboxamide] | > 100
< 50 | COC[C@H](c1cnn2cc([C@@H](NC(=O)c3nonc3C3CC3)[C@@H](C)OC3(C(F)(F)F)CC3)nc2c1)N1CC(F)(F)CNC1=O (relative stereo) [Example 90, 4-Cyclopropyl-N-((1R*,2R*)-1-(7-((S)-1-(5,5-difluoro-2-oxotetrahydropyrimidin-1(2H)-yl)-2-methoxyethyl)imidazo[1,2-b]pyridazin-2-yl)-2-(1-(trifluoromethyl)cyclopropoxy)propyl)-1,2,5-oxadiazole-3-carboxamide] | < 50
50 to 100 | COC[C@H](c1cnn2cc([C@@H](NC(=O)c3nonc3C3CC3)[C@H](C)OC3(C(F)(F)F)CC3)nc2c1)N1CC(F)(F)CNC1=O (relative stereo) [Example 91, 4-Cyclopropyl-N-((1R*,2S*)-1-(7-((S)-1-(5,5-difluoro-2-oxotetrahydropyrimidin-1(2H)-yl)-2-methoxyethyl)imidazo[1,2-b]pyridazin-2-yl)-2-(1-(trifluoromethyl)cyclopropoxy)propyl)-1,2,5-oxadiazole-3-carboxamide] | > 100
50 to 100 | COc1nonc1C(=O)N[C@@H](CCC(C)(C)C(F)(F)F)c1cn2ncc(CN3C[C@@H]4[C@H](CNC3=O)C4(F)F)cc2n1 (relative stereo) [Example 116, N—((S)-1-(7-(((1S*,7R*)-8,8-Difluoro-4-oxo-3,5-diazabicyclo[5.1.0]octan-3-yl)methyl)imidazo[1,2-b]pyridazin-2-yl)-5,5,5-trifluoro-4,4-dimethylpentyl)-4-methoxy-1,2,5-oxadiazole-3-carboxamide] | > 100
– | COC[C@H](c1cnn2cc([C@@H](NC(=O)c3nonc3C)[C@@H](C)O[C@H](C)C(F)(F)F)nc2c1)N1CC(F)(F)CNC1=O [Example 53, N-((1R,2R)-1-(7-((S)-1-(5,5-Difluoro-2-oxotetrahydropyrimidin-1(2H)-yl)-2-methoxyethyl)imidazo[1,2-b]pyridazin-2-yl)-2-(((R)-1,1,1-trifluoropropan-2-yl)oxy)propyl)-4-methyl-1,2,5-oxadiazole-3-carboxamide] | < 50
– | Cc1nonc1C(=O)N[C@@H](COC(C)(C)C(F)(F)F)c1cn2ncc([C@@H](C3CC3)N3CC(F)(F)CNC3=O)cc2n1 [Example 62, N—((R)-1-(7-((R)-Cyclopropyl(5,5-difluoro-2-oxotetrahydropyrimidin-1(2H)-yl)methyl)imidazo[1,2-b]pyridazin-2-yl)-2-((1,1,1-trifluoro-2-methylpropan-2-yl)oxy)ethyl)-4-methyl-1,2,5-oxadiazole-3-carboxamide] | 50 to 100
– | C[C@H](c1cnn2cc([C@@H](NC(=O)c3nonc3C3CC3)C3CCC(F)(F)CC3)nc2c1)N1CC(F)(F)CNC1=O [Example 63, 4-Cyclopropyl-N—((S)-(7-((R)-1-(5,5-difluoro-2-oxotetrahydropyrimidin-1(2H)-yl)ethyl)imidazo[1,2-b]pyridazin-2-yl)(4,4-difluorocyclohexyl)methyl)-1,2,5-oxadiazole-3-carboxamide] | < 50
– | COC[C@H](c1cnn2cc([C@H](COC(C)(C)C(F)(F)F)NC(=O)c3nonc3C3CC3)nc2c1)N1CC(F)(F)CNC1=O [Example 64, 4-Cyclopropyl-N—((R)-1-(7-((S)-1-(5,5-difluoro-2-oxotetrahydropyrimidin-1(2H)-yl)-2-methoxyethyl)imidazo[1,2-b]pyridazin-2-yl)-2-((1,1,1-trifluoro-2-methylpropan-2-yl)oxy)ethyl)-1,2,5-oxadiazole-3-carboxamide] | < 50
– | COC[C@H](c1cnn2cc([C@H](COC(C)(C)C(F)(F)F)NC(=O)c3ccnn3C(C)C)nc2c1)N1CC(F)(F)CNC1=O [Example 65, N—((R)-1-(7-((S)-1-(5,5-Difluoro-2-oxotetrahydropyrimidin-1(2H)-yl)-2-methoxyethyl)imidazo[1,2-b]pyridazin-2-yl)-2-((1,1,1-trifluoro-2-methylpropan-2-yl)oxy)ethyl)-1-isopropyl-1H-pyrazole-5-carboxamide] | < 50
– | COC[C@H](c1cnn2cc([C@H](CC(C)(C)C(F)(F)F)NC(=O)c3nonc3C)nc2c1)N1CC(F)(F)CNC1=O [Example 66, N—((S)-1-(7-((S)-1-(5,5-Difluoro-2-oxotetrahydropyrimidin-1(2H)-yl)-2-methoxyethyl)imidazo[1,2-b]pyridazin-2-yl)-4,4,4-trifluoro-3,3-dimethylbutyl)-4-methyl-1,2,5-oxadiazole-3-carboxamide] | 50 to 100
– | COC[C@H](c1cnn2cc([C@@H](CCC(C)(C)C(F)(F)F)NC(=O)c3nonc3C)nc2c1)N1CC(F)(F)CNC1=O [Example 67, N—((R)-1-(7-((S)-1-(5,5-Difluoro-2-oxotetrahydropyrimidin-1(2H)-yl)-2-methoxyethyl)imidazo[1,2-b]pyridazin-2-yl)-5,5,5-trifluoro-4,4-dimethylpentyl)-4-methyl-1,2,5-oxadiazole-3-carboxamide] | > 100
– | C[C@H](c1cnn2cc([C@H](COC(C)(C)C(F)(F)F)NC(=O)c3nonc3C3CC3)nc2c1)N1CC(F)(F)CNC1=O [Example 87, 4-Cyclopropyl-N—((R)-1-(7-((R)-1-(5,5-difluoro-2-oxotetrahydropyrimidin-1(2H)-yl)ethyl)imidazo[1,2-b]pyridazin-2-yl)-2-((1,1,1-trifluoro-2-methylpropan-2-yl)oxy)ethyl)-1,2,5-oxadiazole-3-carboxamide] | < 50
– | C[C@H](c1cnn2cc([C@H](CC(C)(C)C(F)(F)F)NC(=O)c3nonc3C3CC3)nc2c1)N1CC(F)(F)CNC1=O [Example 88, 4-Cyclopropyl-N—((S)-1-(7-((R)-1-(5,5-difluoro-2-oxotetrahydropyrimidin-1(2H)-yl)ethyl)imidazo[1,2-b]pyridazin-2-yl)-4,4,4-trifluoro-3,3-dimethylbutyl)-1,2,5-oxadiazole-3-carboxamide] | < 50
